Results: PubChem BioAssay (NCI)
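Compound exposure: 48 hours, 5 concentrations, 96-well plates. GI50 = concentration required for 50% inhibition of growth. TGI is the concentration that stops growth completely.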

How the values were obtained:
Test in all cases: NCI-60 cell line screen, 48 h
[1] = test system: NCI/ADR-RES ovarian
[2] = test system: HS 578T breast
[3] = test system: OVCAR-5 ovarian
[4] = test system: OVCAR-4 ovarian
[5] = test system: BT-549 breast
[6] = test system: MCF7 breast
[7] = test system: U251 CNS
[8] = test system: HCT-15 colon
[9] = test system: UACC-62 melanoma
[10] = test system: EKVX NSCLC
[11] = test system: NCI-H460 lung
[12] = test system: UO-31 renal
[13] = test system: SR leukemia
[14] = test system: MDA-MB-435
[15] = test system: RXF 393 renal
[16] = test system: SN12C renal
[17] = test system: COLO 205 colon
[18] = test system: SF-268 CNS
[19] = test system: UACC-257 melanoma
[20] = test system: HCC-2998 colon
[21] = test system: DU-145 prostate
[22] = test system: T-47D breast
[23] = test system: LOX IMVI melanoma
[24] = test system: HCT-116 colon
[25] = test system: RPMI-8226 leukemia
[26] = test system: SF-539 CNS
[27] = test system: KM12 colon
[28] = test system: HOP-92 NSCLC
[29] = test system: TK-10 renal
[30] = test system: HT29 colon
[31] = test system: SK-MEL-28 melanoma
[32] = test system: OVCAR-3 ovarian
[33] = test system: MDA-MB-231 breast
[34] = test system: 786-0 renal
[35] = test system: A498 renal
[36] = test system: MALME-3M melanoma
[37] = test system: IGROV1 ovarian
[38] = test system: SF-295 CNS
[39] = test system: HOP-62 NSCLC
[40] = test system: SW-620 colon
[41] = test system: OVCAR-8 ovarian
[42] = test system: CAKI-1 renal
[43] = test system: MOLT-4 leukemia
[44] = test system: A549 NSCLC
[45] = test system: NCI-H226 lung
[46] = test system: CCRF-CEM leukemia
[47] = test system: SK-MEL-5 melanoma
[48] = test system: SK-OV-3 ovarian
[49] = test system: PC-3 prostate
[50] = test system: HL-60(TB) leukemia
[51] = test system: K-562 leukemia
[52] = test system: SNB-19 CNS
[53] = test system: NCI-H522 lung
[54] = test system: ACHN renal
[55] = test system: SNB-75 CNS
[56] = test system: M14 melanoma
[57] = test system: SK-MEL-2 melanoma

For `COc1cc(OC)c(S(N)(=O)=O)cc1C(=O)/C=C/c1ccc(Cl)cc1`, the GI50 [1] was 3.97 µM, the TGI [1] was > 100 µM and the GI50 [2] was 4.22 µM. The TGI [2] was > 100 µM, the GI50 [3] was 3.18 µM and the TGI [3] was 11.5 µM. It also gave a GI50 [4] of 3.54 µM, a TGI [4] of 27 µM and a GI50 [5] of 1.25 µM. The TGI [5] was 2.73 µM, the GI50 [6] was 1.08 µM and the TGI [6] was 4.11 µM. The GI50 [7] was 2.18 µM, the TGI [7] was 6.48 µM and the GI50 [8] was 1.46 µM. For the same compound, the TGI [8] was 10.2 µM, the GI50 [9] was 2.67 µM and the TGI [9] was 10.6 µM. It also gave a GI50 [10] of 3.88 µM, a TGI [10] of 22.3 µM and a GI50 [11] of 2.84 µM. It also gave a TGI [11] of 12 µM, a GI50 [12] of 2.36 µM and a TGI [12] of 10.3 µM. For the same compound, the GI50 [13] was 2.11 µM, the TGI [13] was 7.84 µM and the GI50 [14] was 2.08 µM. For the same compound, the TGI [14] was 6.54 µM, the GI50 [15] was 1.62 µM and the TGI [15] was 3.34 µM. It also gave a GI50 [16] of 2.48 µM, a TGI [16] of 12.6 µM and a GI50 [17] of 1.66 µM. The TGI [17] was 3.13 µM, the GI50 [18] was 3.75 µM and the TGI [18] was 26.1 µM. It also gave a GI50 [19] of 5.46 µM, a TGI [19] of 22.7 µM and a GI50 [20] of 2.41 µM. It also gave a TGI [20] of 6.12 µM, a GI50 [21] of 3.44 µM and a TGI [21] of 15.4 µM. It also gave a GI50 [22] of 2.37 µM, a TGI [22] of 12.4 µM and a GI50 [23] of 0.733 µM. For the same compound, the TGI [23] was 2.51 µM, the GI50 [24] was 0.748 µM and the TGI [24] was 2.13 µM. The GI50 [25] was 1.86 µM, the TGI [25] was 6.33 µM and the GI50 [26] was 2.14 µM. For the same compound, the TGI [26] was 4.82 µM, the GI50 [27] was 1.82 µM and the TGI [27] was 7.06 µM. For the same compound, the GI50 [28] was 1.46 µM, the TGI [28] was 4.92 µM and the GI50 [29] was 2.91 µM. For the same compound, the TGI [29] was 8.89 µM, the GI50 [30] was 2.18 µM and the TGI [30] was 4.66 µM. It also gave a GI50 [31] of 3.03 µM, a TGI [31] of 9.87 µM and a GI50 [32] of 3.51 µM. For the same compound, the TGI [32] was 17.6 µM, the GI50 [33] was 3.92 µM and the TGI [33] was 18.9 µM. The GI50 [34] was 1.9 µM, the TGI [34] was 4.32 µM and the GI50 [35] was 18.6 µM. The TGI [35] was 34 µM, the GI50 [36] was 2.79 µM and the TGI [36] was 8.51 µM. The GI50 [37] was 2.95 µM, the TGI [37] was 12.3 µM and the GI50 [38] was 3.88 µM. The TGI [38] was 12.5 µM, the GI50 [39] was 2.58 µM and the TGI [39] was 6.59 µM. For the same compound, the GI50 [40] was 2.49 µM, the TGI [40] was 11.7 µM and the GI50 [41] was 3.01 µM. It also gave a TGI [41] of 14.6 µM, a GI50 [42] of 1.89 µM and a TGI [42] of 10.5 µM. The GI50 [43] was 2.82 µM, the TGI [43] was 13 µM and the GI50 [44] was 3.17 µM. It also gave a TGI [44] of 14.2 µM, a GI50 [45] of 2.56 µM and a TGI [45] of 8.86 µM. For the same compound, the GI50 [46] was 1.52 µM, the TGI [46] was > 100 µM and the GI50 [47] was 4.93 µM. The TGI [47] was 16.9 µM, the GI50 [48] was 2.8 µM and the TGI [48] was 8.22 µM. For the same compound, the GI50 [49] was 1.6 µM, the TGI [49] was 4.25 µM and the GI50 [50] was 1.91 µM. The TGI [50] was 8.88 µM, the GI50 [51] was 1.85 µM and the TGI [51] was 13.6 µM. The GI50 [52] was 3.17 µM, the TGI [52] was 16.7 µM and the GI50 [53] was 1.63 µM. It also gave a TGI [53] of 3.42 µM, a GI50 [54] of 3.16 µM and a TGI [54] of 11.1 µM. It also gave a GI50 [55] of 1.5 µM, a TGI [55] of 3.23 µM and a GI50 [56] of 1.47 µM. For the same compound, the TGI [56] was 3.14 µM, the GI50 [57] was 11.5 µM and the TGI [57] was 25.6 µM.
